Test results reported in PMC8268238, “Seleno-Functionalization of Quercetin Improves the Non-Covalent Inhibition of M^pro and Its Antiviral Activity in Cells against SARS-CoV-2” (International Journal of Molecular Sciences, 2021).
pIC50, pKi: −log10 of the molar value. Read-outs that look alike come from different tables or passages of the source.

How the values were obtained:
[1] = molecular target: T1, SARS-CoV-2 M^pro (Severe acute respiratory syndrome coronavirus 2, UniProt P0DTD1); experiment: SARS-CoV-2 M^pro inhibition assay (FRET substrate); type: biochemical; conditions: for pIC50 / pKi: 0.2 μM enzyme, 20 μM substrate, pH 7, DMSO 2.5%; for pIC50: equivalent to Ki^app; for pKi: intrinsic inhibition constant; for anti-M^pro inhibitory activity (in words): first-line screening at 100 μM
Procedure: A continuous assay based on Förster resonance energy transfer (FRET) to measure in vitro the catalytic activity of M^pro was implemented by using the substrate (Dabcyl)KTSAVLQSGFRKME(Edans)-NH2 (Biosyntan GmbH, Berlin, Germany) The enzymatic reaction was initiated by adding substrate at 20 μM (final concentration) to the enzyme at 0.2 μM (final concentration) in a final volume of 100 μL. The reaction buffer was sodium phosphate 50 mM, pH 7, NaCl 150 mM, and DMSO 2.5%. Fluorescence emission was measured in a FluoDia T70 microplate reader (Photon Technology International, Birmingham, NJ, USA) for 20 min (excitation wavelength, 380 nm; emission wavelength, 500 nm). The initial slope of the time evolution curve of the fluorescence emission signal provided a direct quantification of the enzymatic activity.
The in vitro inhibition potency of the compounds against M^pro was assessed through the estimation of the inhibition constant, Ki, and the half-maximal inhibitory concentration, IC50, from experimental inhibition curves. Inhibition curves were obtained by measuring the enzyme activity (at fixed 0.2 μM enzyme concentration and fixed 20 μM substrate concentration) as a function of compound concentration (serial 2-fold dilution from 125 µM to 0 μM), maintaining the percentage of DMSO (2.5%) constant. The enzymatic activity was quantitated as the initial slope of the substrate fluorescence emission time evolution curve, and was plotted as a function of compound concentration. The ratio between the activity (slope) in the presence and absence of the compound provides the residual percentage of activity at a given compound concentration. Nonlinear regression analysis employing a simple inhibition model (considering inhibitor depletion due to enzyme binding) allowed us to estimate the apparent inhibition constant, Ki^app, for each compound according to Equation (1):(1) [EI]=1/2([I]T+[E]T+Kiapp−([I]T+[E]T+Kiapp)^2−4[E]T[I]T)[I]=[I]T−[EI]=1/2([I]T−[E]T−Kiapp+([I]T+[E]T+Kiapp)^2−4[E]T[I]T)v([I])/v([I]=0)=1−[EI]/[E]T=1/1+[I]/Kiapp, where [EI] is the concentration of the enzyme–inhibitor complex, [E]T and [I]T are the total concentrations of the enzyme and the inhibitor, Ki^app is the apparent inhibition constant for the inhibitors (quercetin and derivatives), [I] is the concentration of the free inhibitor, and v is the initial slope of the enzymatic activity trace at a given (free) inhibitor concentration [I] (or total inhibitor concentration [I]T). No approximation for the free inhibitor concentration (e.g., assuming to be equal to the total inhibitor concentration) was made, thus having general validity for any total enzyme and inhibitor concentration and any value of the inhibition constant (even for tight-binding inhibitors). In addition, if the inhibitor acts through a purely competitive mechanism, the previous equation can be substituted by Equation (2):(2) v([I])/v([I]=0)=1/1+[I]/Kiapp=1/1+[I]/Ki(1+[S]/Km), where Ki is the intrinsic (i.e., substrate concentration-independent) inhibition constant, Km is the Michaelis–Menten constant for the enzyme–substrate interaction, and [S] is the substrate concentration. Because Km and [S] are known, the intrinsic inhibition constant can be determined. Furthermore, approximating the free compound concentration by the total compound concentration and neglecting ligand depletion, the Ki^app in Equation (2) is equivalent to the IC50, as reported in Table 3. However, it should be emphasized that the IC50 is an assay-dependent inhibition potency index (among other parameters, it depends on the enzyme and substrate concentrations, as well as on the Km); thus, the intrinsic inhibition constant is a better inhibition potency index. Uncertainties have been reported as 95% profile likelihood asymmetric confidence intervals, as especially recommended for equilibrium constants (i.e., binding association/dissociation constants and inhibition constants).

[2] = system: SARS-CoV-2; conditions: for Inhibition of the virus-caused cytopathic effect (CPE) / toxicity in the cellular infection model (in words): Vero cells; for Inhibition of the virus-caused cytopathic effect (CPE): 2 days; for toxicity in the cellular infection model (in words) / precipitation in the medium (in words): 100-10 µM; for precipitation in the medium (in words): culture medium; for SARS-CoV-2-related CPE reduction (in words): tested at 100, 75, 50, 25 and 10 µM, judged at non-toxic concentrations
[3] = system: SARS-CoV-2; experiment: Inhibition of SARS-CoV-2 replication in Vero cells by RT-qPCR; type: cell-based
[4] = system: Vero cells; experiment: XTT cell viability assay; type: cell-based, Cercopithecus aethiops; conditions: quercetin 500–100 µM; 2d 100–10 µM; Figure S2
Procedure: Cell viability was evaluated using the XTT Cell Viability Assay kit (Biological Industries, Cromwell, CT, USA) according to the manufacturer’s protocol. Vero, A549ACE2+, CRFK, HRT-18, LLC-MK2, and HSF cells were cultured on 96-well plates. Cells were incubated with ACF for 24 h at 37 °C in an atmosphere containing 5% CO2. After incubation, the medium was discarded and 100 µL of fresh medium was added to each well. Then, 25 µL of the activated 2,3-bis-(2-methoxy-4-nitro-5-sulphenyl)-(2H)-tetrazolium-5-carboxanilide (XTT) solution was added and samples were incubated for 2 h at 37 °C. The absorbance (λ = 450 nm) was measured using a Spectra MAX 250 spectrophotometer (Molecular Devices, San Jose, CA, USA). The obtained results were normalized to the control samples, where cell viability was set to 100%.

[5] = molecular target: T1, SARS-CoV-2 M^pro; experiment: Reversibility test of M^pro interaction (SEC/dialysis, then activity and near-UV CD); type: biochemical; conditions: M^pro 24 μM incubated with compound 200 μM, 30 min, 25 °C, then SEC or dialysis

SMILES | pIC50 [1] | pKi [1] | Inhibition of the virus-caused cytopathic effect (CPE) ([2]; 75 µM) | Inhibition of the virus-caused cytopathic effect (CPE) ([2]; 100 µM) | melting point | Inhibition of the virus-caused cytopathic effect (CPE) ([2]; 10 µM) | Inhibition of the virus-caused cytopathic effect (CPE) ([2]; 25 µM) | also measured
O=c1cc(-c2ccccc2)oc2cc(OCC[Te]c3ccccc3)cc(O)c12 [compound 8, 5-Hydroxy-2-phenyl-7-[2-(phenyltellanyl)ethoxy]-4H-chromen-4-one] | 5.48 | 5.96 | prec/tox | prec/tox | 128 to 129 °C |  |  | toxicity in the cellular infection model (in words) [2]: toxic; precipitation in the medium (in words) [2]: precipitated; SARS-CoV-2-related CPE reduction (in words) [2]: No CPE reduction
O=c1cc(-c2ccccc2)oc2cc(OCC[Se]c3ccc(F)cc3)cc(O)c12 |  |  |  |  | 171.1 to 173.7 °C |  |  | 
CCCCCCCCCC[Se]c1c(O)cc(O)c2c(=O)c(O)c(-c3ccc(O)c(O)c3)oc12 [2b, 2-(3,4-Dihydroxyphenyl)-3,5,7-trihydroxy-8-(decylselenyl)-4H-chromen-4-one] | < 4.00 | < 4.00 |  |  | 155 to 159 °C |  |  | anti-M^pro inhibitory activity (in words) [1]: devoid of any noticeable anti-M^pro inhibitory activity
O=c1cc(-c2ccccc2)oc2cc(OCC[Se]Cc3ccccc3)cc(O)c12 |  |  |  |  | 115.4 to 118.2 °C |  |  | 
COc1ccc([Se]c2c(O)cc(O)c3c(=O)c(O)c(-c4ccc(O)c(O)c4)oc23)cc1 [2e, 2-(3,4-Dihydroxyphenyl)-3,5,7-trihydroxy-8-((4-methoxyphenyl)selanyl)-4H-chromen-4-one] | 5.52 | 5.96 | tox | tox | 194 to 197 °C | - | - | Inhibition of the virus-caused cytopathic effect (CPE) ([2]; 50 µM): tox/-
Cc1cc(C)c([Se]CCOc2cc(O)c3c(=O)cc(-c4ccccc4)oc3c2)c(C)c1 |  |  |  |  | 135.7 to 138.4 °C |  |  | 
COc1ccccc1[Se]CCOc1cc(O)c2c(=O)cc(-c3ccccc3)oc2c1 |  |  |  |  | 132.9 to 135.6 °C |  |  | 
O=c1cc(-c2ccccc2)oc2cc(OCC[Se]c3cccc(C(F)(F)F)c3)cc(O)c12 |  |  |  |  | 154.1 to 157.7 °C |  |  | 
O=c1c(O)c(-c2ccc(O)c(O)c2)oc2c([Se]c3ccccc3)c(O)cc(O)c12 [2a, 2-(3,4-Dihydroxyphenyl)-3,5,7-trihydroxy-8-(phenylselanyl)-4H-chromen-4-one] | 5.29 | 5.74 | tox | tox | 211 to 213 °C | - | - | Inhibition of the virus-caused cytopathic effect (CPE) ([2]; 50 µM): +; SARS-CoV-2-related CPE reduction (in words) [2]: inhibited the development of the CPE; inhibition of SARS-CoV-2 replication by RT-qPCR (in words) ([3]; Vero cells, Figure S1): did not indicate any inhibition
CCCC[Se]c1c(O)cc(O)c2c(=O)c(O)c(-c3ccc(O)c(O)c3)oc12 [2c, 2-(3,4-Dihydroxyphenyl)-3,5,7-trihydroxy-8-(butylselenyl)-4H-chromen-4-one] | 4.62 | 5.07 |  |  | 159 to 163 °C |  |  | 
O=c1cc(-c2ccccc2)oc2cc(OCC[Te]c3ccc(Cl)cc3)cc(O)c12 [compound 9, 7-{2-[(4-Chlorophenyl)tellanyl]ethoxy}-5-hydroxy-2-phenyl-4H-chromen-4-one] | 5.66 | 6.11 | prec/- | prec/tox | 140.3 to 143 °C | - | - | toxicity in the cellular infection model (in words) [2]: toxic; precipitation in the medium (in words) [2]: precipitated; SARS-CoV-2-related CPE reduction (in words) [2]: No CPE reduction
O=c1cc(-c2ccccc2)oc2cc(OCC[Se]c3ccccc3)cc(O)c12 [7a, 5-Hydroxy-2-phenyl-7-(2-(phenylselanyl)ethoxy)-4H-chromen-4-one] | < 4.00 | < 4.00 |  |  | 155 to 156 °C |  |  | 
O=c1c(O)c(-c2ccc(O)c(O)c2)oc2cc(O)cc(O)c12 [Quercetin 1, quercetin] |  |  | - | - |  | - | - | cytotoxicity on Vero cells (in words) [4]: none of the tested concentrations exhibited cytotoxicity; Inhibition of the virus-caused cytopathic effect (CPE) ([2]; 50 µM): -; Inhibition of the virus-caused cytopathic effect (CPE) ([2]; 200 µM): +; Inhibition of the virus-caused cytopathic effect (CPE) ([2]; 250 µM): +; Inhibition of the virus-caused cytopathic effect (CPE) ([2]; 300 µM): +; Inhibition of the virus-caused cytopathic effect (CPE) ([2]; 400 µM): +; Inhibition of the virus-caused cytopathic effect (CPE) ([2]; 500 µM): +; reversibility of the interaction with M^pro ([5]; listed as 1): reversible interaction; reversibility of the interaction with M^pro ([5]; listed as quercetin): reversible; pIC50 ([3]; Severe acute respiratory syndrome coronavirus 2, Vero, 48 h, infected Vero cells, 2 days, nonlinear regression, read-out: IC50 of SARS-CoV-2 replication (RT-qPCR)): 3.72; logIC50 of SARS-CoV-2 replication (RT-qPCR) ([3]; log of concentration in µM, Figure S4): 2,284
O=c1c(O)c(-c2ccc(O)c(O)c2)oc2c([Se]c3ccccc3)c(O)c([Se]c3ccccc3)c(O)c12 [compound 3, 2-(3,4-Dihydroxyphenyl)-3,5,7-trihydroxy-6,8-bis(phenylselanyl)-4H-chromen-4-one] | 4.89 | 5.34 | tox | tox | 206 to 210 °C | - | - | Inhibition of the virus-caused cytopathic effect (CPE) ([2]; 50 µM): tox/-
Cc1ccccc1[Se]CCOc1cc(O)c2c(=O)cc(-c3ccccc3)oc2c1 |  |  |  |  | 123.9 to 127.4 °C |  |  | 
O=c1cc(-c2ccccc2)oc2c([Se]c3ccccc3)c(O)c([Se]c3ccccc3)c(O)c12 [compound 6, 5,7-Dihydroxy-2-phenyl-6,8-bis(phenylselanyl)-4H-chromen-4-one] | < 4.00 | < 4.00 |  |  | 188.7 to 190.6 °C |  |  | anti-M^pro inhibitory activity (in words) [1]: devoid of any noticeable anti-M^pro inhibitory activity
